Measured values published in patent US20200170968A1 (priority 2014, published 2020).

Tests used:
[1] = tested on: Chronically HIV-infected U1 cells (monocytes); assay: Reverse transcriptase (RT) activity as readout of virion production in chronically HIV-infected U1 cells; assay type: cell-based
U1 cells = assay: U1 cell viability and proliferation ([3H]-thymidine incorporation); assay type: cell-based; conditions: HIV-infected U1 cells
Description: Chronically HIV-infected U1 cells (monocytes) were stimulated for 6 hours in the presence of NACA. Cytokines (IL-6, […]) or PMA were added and maintained in the cell cultures for 6 days, collecting supernatants daily. Cell viability and proliferation were checked by optical microscopy, and [3H]-thymidine incorporation, and calcein AM assay. Reverse transcriptase-polymerase chain reaction (RT-PCR) and reverse transcriptase (RT) activity assay as readout of virion production.

HIV infected PBMCs = assay: Cell viability of HIV infected PBMCs; assay type: cell-based; conditions: varying concentrations of NACA
Description: (§1) Peripheral blood mononuclear cells (PBMC) were acutely infected with HIV-1 and stimulated with NACA. Cell viability was measured in HIV infected PBMCs with varying concentrations of NACA.

HIV-1 = assay: HIV replication in acutely infected PBMC / lymphocytes; assay type: cell-based
Description: In some embodiments, the present invention relates to a method for inhibiting HIV replication. Data is attached reporting the results of an HIV study in lymphocytes with 100% block of replication at 20 mM concentration.
as §1

HIV-1 (IIIB) = assay: Inhibition of HIV-1 replication in CEM cells (giant cell / syncytia formation); assay type: cell-based; conditions: for EC50: concentration required to protect CEM cells against the cytopathogenicity of HIV by 50%, HIV-1 (IIIB)
Description: (§2) CEM cells were suspended in fresh culture medium and infected with HIV-1 (IIIB) or HIV-2 (ROD) at 100 CCID50 per ml of cell suspension. 100 μl of the infected cell suspension were transferred to microplate wells, mixed with 100 μl of the appropriate dilutions of compounds, and further incubated at 37° C. After 4 days, giant cell formation was recorded microscopically and the number of giant cells was estimated as percentage of the number of giant cells present in the non-treated virus-infected cell cultures.

HIV-2 (ROD) = assay: Inhibition of HIV-2 replication in CEM cells (giant cell / syncytia formation); assay type: cell-based; conditions: for EC50: concentration required to protect CEM cells against the cytopathogenicity of HIV by 50%, HIV-2 (ROD)
Description: as §2

CEM cells [2] = assay: Cytostatic activity assay (cell proliferation, Coulter counter); assay type: cell-based; conditions: Homo sapiens, CCRF-CEM, 72 h, 50% inhibitory concentration of cell proliferation
Description: The cytostatic activity assay was performed in 96-well microliter plates. 5-7.5×10^4 cells and a given amount of the test compound were added to each well. The cells were allowed to proliferate for 72 h at 37° C. is a humidified CO2-controlled atmosphere. At the end of the incubation period, the cells were counted in a Coulter counter. The IC50 (half maximal inhibitory concentration) was defined as the concentration of the compound that inhibited cell proliferation by 50%.

CEM cells [3] = assay: Viability test (trypan blue); assay type: cell-based, Human; conditions: concentrations up to 10 mM
Description: CEM cells (3×10^5 cells/ml) were seeded and grown in the presence or absence of indicated concentrations of NACA. The medium was replaced and added new NACA after two days. After 48 and 96 hours, respectively, aliquots of the cells were harvested and combined with trypan blue dye before analyzed microscopically on a hemocytometer counting chamber. Blue cells were counted as nonviable and to estimate the amount of viable cells the amount of live cells was compared to the total amount of cells.

viral RT = target: T1, viral RT (Human immunodeficiency virus type 1 group M subtype B, UniProt P04585); assay: Reverse transcriptase (RT) inhibition, Lenti RT Activity kit; assay type: biochemical, HIV; conditions: 25 μM
T1 construct: endogenous in cells; host or cells: viral sample (virus-containing supernatant; probably from PMA-induced ACH-2 cells, inferred)
Description: The ability of the compounds to inhibit the activity of viral RT was determined by a Lenti RT Activity kit (Cavidi, Uppsala, Sweden) according to the manufacturer's instructions (protocol A): A poly-A plate was incubated with the reaction buffer for up to 1 h at 33° C. Afterwards, the viral sample together with NACA, an inhibition control (nevirapin) or a vehicle control (DMSO) were added and incubated overnight at 33° C. The plate was washed, exposed to the tracer for 90 min at 33° C. and washed again, before the substrate was added. The plate was incubated in the dark and subsequently read at 405 nm in a Multiskan RC (Labsystem).
For the data shown in FIG. 13A, a poly-A plate was incubated with the reaction buffer and subsequently, the viral sample (1:500 dilution) together with the NACA, nevirapin (inhibition control) or DMSO (vehicle control) was added and incubated overnight. The plate was exposed to the tracer and the substrate was added. The plate was incubated in the dark and read at 405 nm. The value for the vector control (DMSO) was set to 100% in each individual repeat and all other values were normalized to this reference value. The data shown in FIG. 13A are means of three independent experiments; the error bars represent the SEM. P-values are indicated if significant (*: p<0.05; **: p<0.01; ***: p<0.001).

[4] = target: T2, recombinant HIV-1 protease (Human immunodeficiency virus type 1 group M subtype B, UniProt P04585); assay: Protease inhibition, SensoLyte HIV-1 protease assay kit; assay type: biochemical
T2 construct: Recombinant HIV-1 protease was purchased from AnaSpec Inc; purchased AnaSpec Inc
Description: The ability of NACA to inhibit the activity of recombinant HIV-1 protease was determined by a SensoLyte […] HIV-1 protease assay kit (AnaSpec Inc.) according to manufacturer's instructions: The compounds and the HIV-1 protease were added to a dark-bottom 96 well plate and the following controls were included: positive control (without NACA), inhibition control (pepstatin A), vehicle control (DMSO), NACA controls (to test for autofluorescence) and substrate control (assay buffer only). The plate as well as the HIV-1 protease substrate solution were incubated 15 minutes at 37° C. and 50 μl protease substrate was added to all wells. The fluorescence was measured at Ex/Em=490 nm/520 nm with a Varioskan Flash (Thermo Electron Corporation).
For the data shown in FIG. 13B, the HIV-1 protease together with NACA, a positive control (pepstatin A) or DMSO (vehicle control) were added to a dark-bottom 96 well plate. The plate as was incubated and protease substrate was added to all wells. The fluorescence was measured at Ex/Em=490 nm/520 nm. The value for the vector control (DMSO) was set to 100% in each individual repeat and all other values were normalized to this reference value. The data are means of three independent experiments; the error bars represent the SEM. P-values are indicated if significant (*: p<0.05; **: p<0.01; ***: p<0.001).

[5] = tested on: viral integration in TZM-b1 cells; assay: Infectivity assay in TZM-b1 cells (luciferase; viral integration); assay type: cell-based, HIV-1; conditions: 10 mM; 40 h
Description: 1×10^5 TZM-b1 cells were infected with diluted virus suspension (see 2.3 Virus expression) in a total of 0.2 ml DMEM medium in the presence of NACA, an inhibition control (nevirapin) or a vehicle control (DMSO). After 40 h at 37° C., the cells were assayed in a Luminoskan Ascent (Thermo Labsystems) for luciferase activity using the OneGlo luciferase assay system (Promega).
To determine additional targets of NACA inhibition within early stage processes of viral integration (viral entry to integration into the host genome), an infectivity assay was performed. TZM-b1 cells contain a luciferase gene that is under control of the HIV-1 promoter. Upon viral entry, transcription and integration into the host genome, luciferase is expressed and can convert the added substrate to the fluorescent product. The amount of measured product is quantitatively correlated to the amount of integrated virus in the test culture.
For the data in FIG. 14, TZM-b1 cells were infected with a diluted virus suspension in a total of 0.2 ml DMEM medium in the presence of the 25 μM or 10 mM NACA, an inhibition control (nevirapin) or a vehicle control (DMSO). Additionally, one well was treated with medium only instead of the virus dilution (no virus, negative control). After 40 h, the cells were assayed for luciferase activity. […] P-values were calculated between the vehicle control and the individual treatments. […]

p24 in ACH-2 cells = assay: Production of viral particles (p24) in PMA-stimulated ACH-2 cells; assay type: cell-based, HIV; conditions: ACH-2 cells with PMA, 3 days, indicated amounts of NACA
Description: ACH-2 cells (1×10^6 cells/ml) were cultured with 100 nM PMA. After three days the cell culture supernatant was collected, cleared by centrifugation at 300×g for 10 min and passed through a 0.45 μm filter. p24 content was measured in an Architect i2000SR (Abbott Laboratories, Ill., USA) as a measurement for virus content and supernatant was either used directly or frozen at −80° C. for later usage.
(§3) To measure the infectivity of particles produced in the presence of the compounds, ACH-2 cells (1×10^6 cells/ml) were cultured with 100 nM PMA in the presence of the indicated amount of NACA or DMSO (negative control). After 3 days, the p24 content of the clarified supernatant (see 2.3 Virus expression) was measured. The supernatant was used for an infectivity test (see 2.4 Infectivity test) without the addition of any compound to the wells. The final dilution of the viral supernatant in the infectivity test was 1:100. A control experiment was performed, in which virus particles produced without the addition of NACA, were used for the infectivity test.
For the data in FIG. 15A, ACH-2 cells were cultured with […] in the presence of the indicated amount of NACA, DMSO (vector control=0 mM NACA) or no additive (control). After 3 days, the supernatant was clarified and the amount of p24 was measured by ELISA. […] P-values were calculated between the vehicle control and the individual treatments. […]

HIV particles = assay: Infectivity of viral particles produced in the presence of NACA (TZM-b1 luciferase); assay type: cell-based
Description: as §3
For the data in FIG. 15B, the clarified supernatant was further used for an infectivity test without the addition of any compound to the wells. The NACA amount stated in the graph refers to the amount in which the HIV producing cells were grown. TZM-b1 cells were infected with the diluted virus suspensions in a total of 0.2 ml DMEM (total dilution of virus supernatant: 1:100). After 40 h, the cells were assayed for luciferase activity. Additionally, a control experiment was performed, in which virus particles produced in the control set up, were used for the infectivity test. The same amount of NACA that could have been carried over with the virus containing supernatant in the original experiment was added to the infectivity test (final concentration: 1/100 of the indicated amount in the viral growth culture). The value for the control was set to 100% in each individual repeat and all other values were normalised these reference values. The data are means of three independent experiments; the error bars represent the SEM. P-values were calculated between the vehicle control and the individual treatments. P-values are indicated if significant (*: p<0.05; **: p<0.01; ***:p<0.001).

SMILES: CC(=O)N[C@@H](CS)C(N)=O
- reverse transcriptase activity ([1]; U1 cells activated with 1 ng/mL TNF-α or 10 ng/mL IL-6): significant reduction
- concentration effective in reducing HIV replication in activated U1 cells (RT activity) ([1]; U1 cells activated with 1 ng/mL TNT-α, 10 ng/mL IL-6 or 10 nM PMA): 1 to 10 µM
- relative amounts of reverse transcriptase activity ([1]; U1 cells, between days 3 and 5): did not alter
- concentration effective in reducing HIV replication in activated U1 cells ([1]; activated U1 cells): 10 to 333 µM
- U1 cell viability or proliferation as measured by [3H]-thymidine incorporation (U1 cells): did not have a large effect
- cell viability (HIV infected PBMCs): did not affect cell viability
- effect on HIV replication (HIV-1; HIV infected PBMCs): inhibitor effect
- HIV replication inhibited (HIV-1; HIV infected PBMCs, concentrations of 10 mM and above): ~100%
- block of replication (HIV-1; lymphocytes, 20 mM concentration): 100%
- Ratio IC50/EC50 (CEM) HIV-1 (HIV-1 (IIIB); CEM cells): 3
- EC50 (HIV-1 (IIIB); Human immunodeficiency virus 1, IIIB, CCRF-CEM): ~230 µM
- EC50 (HIV-1 (IIIB)): 224 ± 86 µM
- Ratio IC50/EC50 (CEM) HIV-2 (HIV-2 (ROD); CEM cells): 2
- EC50 (HIV-2 (ROD); Human immunodeficiency virus 2, CCRF-CEM): ~230 µM
- EC50 (HIV-2 (ROD)): 234 µM
- IC50 (CEM cells [2]): ~564 µM
- CEM cells alive (CEM cells [3]): more than 99%
- effect on viral RT activity (viral RT): no effect
- effect on viral protease activity ([4]; 25 μM): no effect
- effect on protease activity ([4]; 10 mM): significant effect
- effect on viral integration [5]: more predominant effect
- amount of p24 (p24 in ACH-2 cells): not affected
- effect on infectivity when NACA was added after the production of the viral particles (NACA added) (HIV particles; final concentration 1/100 of the indicated amount): not visible
- infectivity of the particles produced in the presence of NACA (NACA grown) (HIV particles; higher concentrations (5 mM to 10 mM)): decreased significantly
- infectivity of the particles produced in the presence of NACA (NACA grown) (HIV particles; low concentrations (0 mM to 1 mM)): auxiliary effect
